This note sets out measurements from patent publication EP2605769B1, “BENZOQUINONE DERIVATIVES FOR THE TREATMENT OF MITCHONDRIAL EYE DISEASES” (Santhera Pharmaceuticals (Schweiz) AG, priority 2010, dated 2012).

Assay [1] has as its system Primary human fibroblasts C4 (GM04545, Coriell). The experiment in a line: Lipid peroxidation assay (BODIPY 581/591-C11). The settings on record: 10 µM test compound, 72 hours. Format: cell-based. The text has this: Lipid peroxidation is a well defined mechanism of cellular damage in both animals and plants that occurs during aging and in some disease states. This process proceeds by a free radical chain reaction mechanism. […] If not terminated fast enough, lipid peroxidation damages cellular membranes, affect membrane fluidity and also mitochondrial function. In addition, end products of lipid peroxidation may be mutagenic and carcinogenic. For instance, the reactive end product of lipid peroxidation, malondialdehyde, directly causes DNA damage. Experimental Procedure: […] BODIPY 581/591-C11 can be used to measure antioxidant activity in lipid environments by exploiting its loss of fluorescence upon interaction with peroxyl radicals. […] After that, 0.1 ml freshly prepared dye solution (HBSS, containing BODIPY dye 1:1000 from stock solution) was added and cells were returned to the incubator for 30 min. After 2 brief washes with 0.1 ml warmed PBS fluorescence was measured in 50 µl PBS. Fluorescence for 4 individual areas per well were individually quantified at two wavelengths (Ex1: 490, Em1: 600; Ex2: 490, Em2: 530, bandwith 10nm, 50 flashes, 400Hz frequency, 20 µs integration time).

In a further assay the test system is Complex II-III. The experiment in a line: Measurement of mitochondrial complex II activity (SURFE2R CII-CIII assay). The conditions noted are these: test compound ~4 µM, peak current normalized. In kind it is biochemical. The text has this: Complex II (CII) is an enzyme complex bound to the matrix face of the inner mitochondrial membranes. It consists of four subunits with several different enzymatic activities. One of these is the citric acid-cycle enzyme succinate dehydrogenase, which catalyzes the conversion from succinate to fumarate. In this reaction electrons are transferred from succinate to the prosthetic group FAD thus generating FADH2 ([…] 2000). These electrons are then transferred from the reduced FADH2 to ubiquinone, from ubiquinone to the reaction centers of complex III (CIII), and finally to the cytochrome c. During this electron translocation process, complex III pumps four protons from matrix to the intermembrane space. These proton fluxes can be detected as electrical currents on SSM-based SURFE2R sensors (http://www.sd-heidelberg.de/index.html). In the SURFE2R CII-CIII assay, both, CII and CIII are activated simultaneously by first equilibrating the sensors with succinate and then activating the CII-CIII reaction by oxidized cytochrome c. The resulting efflux of protons out from the membrane compartment induces negative currents, which are sensitive to the CII and CIII inhibitors malonate and antimycin A, respectively. Experimental Procedure: SURFE2R SSM sensors were coated with inner mitochondrial membranes according to the standard protocols. Briefly, sensors were filled with 50 μL of SensorPrep A solution and incubated for 10-15 min. […] The biosensors were thawed immediately before the experiment and measured with the SURFE2R Workstation 50 or 500 devices. […] For the activity of CII-III, the peak current (current amplitude) was evaluated. […] Afterwards, a test compound (~4 μM) was supplied to the non-activating and the activating solutions and the CII-III activity was recorded for further ~50 min (110 min in total). […] For those test compounds, which activated CII-III by more than 30% at time 80 to 110 min, the CII-CIII activity was recorded for additional ~50 min (up to 160 min in total).

The molecule `COC1=C(OC)C(=O)C(CCCCCCCCCCO)=C(C)C1=O` [Compound IA, Idebenone] registered a Lipid peroxidation in assay [1] of 98%. The “Complex II-III activity” value with Complex II-III is 102%.
In the case of `CCCCCCCCCCCC1=C(O)C(=O)C=C(O)C1=O` [Compound IE, Embelin], the Lipid peroxidation in assay [1] is recorded as 110%. For the same molecule, the “Complex II-III activity” value in the assay on Complex II-III worked out at 110%.
On to `COC1=C(OC)C(=O)C(CCCCCCCCCC(C)(C)O)=C(C)C1=O` [Compound IC], for which, in assay [1], the Lipid peroxidation is recorded as 92%. Besides, the “Complex II-III activity” value in the assay with Complex II-III was found to be 97%.
